Test results: PubChem BioAssay (NCI)
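A five-concentration, 48-hour dose response in 96-well plates underlies each endpoint, interpolated linearly between surrounding concentrations. TGI marks complete inhibition of growth.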

Assays:
Test in all cases: NCI-60 cell line screen, 48 h
UO-31 renal = system: UO-31 renal
SK-MEL-28 melanoma = system: SK-MEL-28 melanoma
MDA-N = system: MDA-N
K-562 leukemia = system: K-562 leukemia
NCI-H226 lung = system: NCI-H226 lung
HCT-15 colon = system: HCT-15 colon
SK-OV-3 ovarian = system: SK-OV-3 ovarian
LOX IMVI melanoma = system: LOX IMVI melanoma
PC-3 prostate = system: PC-3 prostate
COLO 205 colon = system: COLO 205 colon
MALME-3M melanoma = system: MALME-3M melanoma
MOLT-4 leukemia = system: MOLT-4 leukemia
MDA-MB-435 = system: MDA-MB-435
SNB-19 CNS = system: SNB-19 CNS
SN12C renal = system: SN12C renal
NCI-H23 lung = system: NCI-H23 lung
DU-145 prostate = system: DU-145 prostate
OVCAR-5 ovarian = system: OVCAR-5 ovarian
NCI-H522 lung = system: NCI-H522 lung

Measured: TGI

C=CCOC(=O)Cn1cc(C)c(=O)[nH]c1=O
not listed: OVCAR-5 ovarian | NCI-H522 lung
> 100 µM: all other assays above

C#CCNC(=O)NCCCC(NC(C)=O)C(=O)NCc1ccccc1 (centres undefined)
not listed: MDA-N | PC-3 prostate | MDA-MB-435 | DU-145 prostate
> 100 µM: all other assays above

CN(C)CCC(O)(c1ccccc1)C(O)(CCN(C)C)c1ccccc1 (centres undefined)
32.6 µM: MALME-3M melanoma
not listed: MDA-N | NCI-H226 lung | LOX IMVI melanoma | PC-3 prostate | MDA-MB-435 | DU-145 prostate
> 100 µM: all other assays above

Nc1nc(NCCO)c(N=O)c(=O)[nH]1
not listed: MDA-N | PC-3 prostate | MOLT-4 leukemia | MDA-MB-435 | SNB-19 CNS | NCI-H23 lung | DU-145 prostate
> 100 µM: all other assays above

CCOc1ccc(NC(=O)C2=C(C)NC(C)=C(C(=O)Nc3ccc(OCC)cc3)C2c2ccc(O)c(OC)c2)cc1
not listed: MDA-N | HCT-15 colon | PC-3 prostate | MDA-MB-435 | DU-145 prostate
> 100 µM: all other assays above

N#CCCN(c1ccc(/C=C2\N=C(Cc3ccccc3)OC2=O)cc1)S(=O)(=O)c1ccccc1
not listed: MDA-N | PC-3 prostate | MDA-MB-435 | DU-145 prostate
> 100 µM: all other assays above

CC(C)(C)OC(=O)CC(NC(=O)OC(C)(C)C)C(=O)N[C@@H]1CCCC[C@H]1C(=O)OCc1ccccc1 (some centres undefined)
85.3 µM: NCI-H23 lung
65 µM: SK-OV-3 ovarian
38.2 µM: COLO 205 colon
99.8 µM: DU-145 prostate
69.3 µM: SNB-19 CNS
92.2 µM: MDA-MB-435
48.7 µM: SN12C renal
89.1 µM: MOLT-4 leukemia
53.8 µM: UO-31 renal
60.3 µM: NCI-H226 lung
39.4 µM: HCT-15 colon
not listed: NCI-H522 lung
> 100 µM: all other assays above

O=C(CC(=O)Nc1cccc(Cl)c1)NNCC(=O)Nc1nnc(-c2ccccc2)s1
75.7 µM: NCI-H226 lung
77.3 µM: SK-OV-3 ovarian
not listed: MDA-N | PC-3 prostate | MALME-3M melanoma | MDA-MB-435 | DU-145 prostate
> 100 µM: all other assays above

NC(=O)c1cccc(C2OC(COP(=O)(O)O)C(O)C2O)c1 (centres undefined)
not listed: MDA-N | PC-3 prostate | MDA-MB-435 | DU-145 prostate
> 50 µM: all other assays above

N#CC(C(=O)/C(=N/NC(=O)c1ccccc1O)C(C#N)c1ccccc1)c1ccccc1 (centres undefined)
> 100 µM: UO-31 renal | SK-MEL-28 melanoma | NCI-H226 lung | HCT-15 colon | SK-OV-3 ovarian | LOX IMVI melanoma | COLO 205 colon | MALME-3M melanoma | SN12C renal | NCI-H23 lung

CCOC(=O)[C@]12C(=C(c3ccccc3)O[C@H]3C=CCC[C@H]31)C(=O)C(=O)N2c1ccccc1
61.3 µM: MOLT-4 leukemia
84.5 µM: K-562 leukemia
not listed: SK-MEL-28 melanoma | MDA-N | NCI-H226 lung | LOX IMVI melanoma | MDA-MB-435
> 100 µM: all other assays above

n1onc2c1NC1Nc3nonc3NC1N2 (centres undefined)
not listed: MALME-3M melanoma
> 100 µM: all other assays above

Nc1ccc2nc(NCc3ccc(F)cc3)cnc2c1
not listed: MDA-N | SK-OV-3 ovarian | PC-3 prostate | MDA-MB-435 | DU-145 prostate
> 100 µM: all other assays above

Cn1c2c(c3ccccc31)CCN(CCN1CCN(c3ccccc3)CC1)C2=O
> 100 µM: UO-31 renal | SK-MEL-28 melanoma | K-562 leukemia | HCT-15 colon | SK-OV-3 ovarian | LOX IMVI melanoma | COLO 205 colon | MOLT-4 leukemia | SN12C renal | NCI-H23 lung
92.9 µM: NCI-H522 lung

CC(=O)O[C@]12CCCCC1C1(O)C(O)CCCCC12 (some centres undefined)
not listed: MDA-N | PC-3 prostate | MDA-MB-435 | DU-145 prostate | OVCAR-5 ovarian
> 100 µM: all other assays above
